Measured values taken from patent US20240425457A1, “COMPOSITIONS AND METHODS FOR SUPPRESSING AND/OR TREATING METABOLIC DISEASES AND/OR A CLINICAL CONDITION THEREOF” (CK Biotech Inc., priority 2018, published 2024).
In brackets after ≈: the same amount, converted by molar mass. Entries after “also recorded” stand apart in the source; their conditions may differ. Read-outs that look alike come from different tables or passages of the source. Each block holds one molecule with its values, some of them ahead of it.

Columns and labels:
HFD-fed mice = assay: HFD-induced obesity/diabetes mice, 5-day oral courses at weeks 8/9 and 12; type: in vivo; details: for fasting glucose level: A3334, A3051, I3O 25, sitagliptin 50, metformin 100 mg/kg
Source text: Animals. The generation of Cxxc5^−/− mice has been described previously. Cxxc5 heterozygous mice were intercrossed for four generations to obtain littermate wild-type and Cxxc5^−/− mice and were maintained on a C57BL/6 background. Six-week-old Cxxc5^+/+ and Cxxc5^−/− mice were fed HFD for 8 weeks. Wild-type male C57BL/6 mice (KOATECH, Seoul, Korea) were fed HFD consisting of 60% calories from fat (Research Diet, D12492) for 8 weeks. To validate that the insulin resistance mouse model was successfully established, fasting glucose levels were assessed with a One Touch Ultra glucometer (LifeScan). Subsequently, each HFD-fed mouse with a fasting glucose level higher than 16.7 mmol/L was orally administered A3334 (25 mg kg^−1), sitagliptin (50 mg kg^−1), or metformin (100 mg kg^−1) each day for 5 days at weeks 8 and 12. After the removal of the drugs, mice were maintained for 3 weeks on the HFD. To monitor pancreas regeneration, six-week-old Cxxc5^+/+ and Cxxc5^−/− mice were fed an HFD as above. After dietary treatment for 4 weeks, the mice were intraperitoneally injected with STZ (50 mg/kg/d) for 1 week and the control group were injected with saline. After 2 weeks, Cxxc5^+/+ mice were administered A3334 (25 mg kg^−1) and sitagliptin (50 mg kg^−1) per day by oral gavage for 4 weeks. For GTT or ITT, mice were injected with D-glucose (1.5 g/kg body weight) after overnight starvation or human insulin (0.75 units/kg body weight) after 4 h starvation, respectively. Tail blood was drawn at 0, 15, 30, 60, 120, 180 min intervals and blood glucose level was measured with a One Touch Ultra glucometer. All mice were maintained under temperature-controlled and light-controlled (standard 12 h light/dark cycle) conditions and provided with food and water ad libitum. All protocols were reviewed and approved by the Institutional Review Board of Severance Hospital, Yonsei University College of Medicine (09-013).
Blood chemistry. Total blood of mice was collected by cardiac puncture after fasting. The blood was allowed to clot for 30 min and was then centrifuged for 10 min at 1,000×g to obtain supernatant to measure metabolic parameters. ELISA assay kits were used to assess serum insulin (Millipore), serum FFA (Cayman Chemical), serum adiponectin (ABclonal). The insulin function test was evaluated by HOMA-IR and was calculated as fasting plasma glucose (m mol/l)×fasting serum insulin (mU/l)/22.5. Serum chemistry variables included total cholesterol, HDL-cholesterol, glucose, TG, ALT, AST, ALP, Ca, and Mg concentration. The calibration of serum parameters was performed using the quality control card supplied with the FUJI DRI-CHEM slides whenever slides from a new lot were used. […]
Hematoxylin and eosin (H&E) staining. Dissected tissues were fixed in 4% neutral paraformaldehyde and embedded in paraffin. The paraffin sections were cut at a thickness of 4 μm and subjected to H&E staining. The adipocyte cell size was measured in 20 randomly chosen microscopic areas from 3 independent animals using a Nikon bright-field optical microscope (Nikon TE-2000U). The average adipocyte size was determined using Image J software. […]
Metabolic monitoring and body composition. Metabolic performance (energy intake and energy expenditure) was studied using a PHENOMASTER automated combined indirect calorimetry system (TSE system GmBH). The mice were first acclimated for 24 h in a metabolic chamber and were provided with food and water. They were then subsequently evaluated for 3 days to measure oxygen consumption (VO2), carbon dioxide production (VCO2), ambulatory counts, and respiratory exchange ratio. An LF50 body composition analyzer (Bruker) was used to determine body composition (lean body mass and total body fat) of the mice. The temperature for these studies remained at 22° C., with a 12 h light/dark cycle. Standard in-house software was used for energy expenditure.
Quantitative real-time polymerase chain reaction (PCR). […]

CXXC5-DVL interaction = molecular target: T1, CXXC5-DVL interaction (Homo sapiens, UniProt O14640); assay: Dvl-CXXC5 in vitro binding assay, (PTD-DBMP)-(PZD-DVL), concentration dependent
T1 sequence (O14640 251-323 limits assumed): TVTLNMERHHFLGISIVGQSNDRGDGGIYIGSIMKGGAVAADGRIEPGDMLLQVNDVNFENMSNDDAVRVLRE

[1] = solubility of A3334 in oil or surfactants (LC/MS/MS); type: physicochemical; details: 37 °C, thermodynamic from solid
Description: To determine emulsion solution, solubility of A3334, for example, is measured in the several oil and surfactants. A3334 is mixed with oil or surfactants (1 ml) and vortexed for 30 min. The equilibrium state was reached by shaking for 72 hours at 37° C. with 50 rpm speed in an incubator, then centrifuged at 16,100×g for 5 min. The supernatant was diluted with methanol and analyzed by LC/MS/MS (see e.g., Table 7).
‘Waters xevo TQ MS-ACQUITY UPLC System’ is used as an analyses equipment. ACQUITY UPLC® BEH(C18, 1.7 μm, 2.1×50 mm) column was used for analyses at room temperature. Mobile phase is used after filtration of deionized distilled water including 0.1% formic acid and acetonitrile including 0.1% formic acid (30:70, v/v) with […] membrane filter. The flow rate is 0.25 ml/min and it is analyzed by injection of 0.5 μl sample. There are LC/MS/MS conditions for Decursin analysis; Cone 38 V, Collison 32 V. Precursor ion and daughter ion are monitored 329 and 229 m/z, respectively.

normal (Chow) mice = assay: normal diet (NCD/Chow) fed mice treated with A3334; type: in vivo
Source text: No effect of A3334 on mice fed with normal diet. To evaluate whether the A3334 treatment would have any effect on normal diet fed mice, C57BL/6N mice were fed normal diet for 16 weeks with or without oral administration of 25 mpk A3334.

db/db diabetes mice = assay: db/db diabetes mice; type: in vivo; details: 1 and 2 weeks of treatment
[2] = HFD mice, 5-day courses at weeks 8/9 and 12, A3334 25 mg/kg, 25 mg/kg
[3] = HFD mice, p.o. daily 5 days at weeks 8/9 and 12
[4] = FIG. 33A-33C, unit inferred, read-out: IC50, in vitro (PTD-DBMP)-(PZD-DVL) binding analyses

- IC50 (CXXC5-DVL interaction; FIG. 10B, read-out: CXXC5-Dvl PPI inhibition IC50): 63.1 nM
- IC50 (CXXC5-DVL interaction; [4]): 25.8 nM
- solubility at 72 h ([1]; oil or lipid, Oil: Olive oil): 830 µg/mL (≈ 2.7 mM)
- solubility at 72 h ([1]; oil or lipid, Oil: Sunflower oil): 1350 µg/mL (≈ 4.39 mM)
- solubility at 72 h ([1]; organic solvent or mixture, Co-Surfactant: Propylene glycol): 250 µg/mL (≈ 0.814 mM)
- solubility at 72 h ([1]; organic solvent or mixture, Co-Surfactant: Transcutor P): 1150 µg/mL (≈ 3.74 mM)
- solubility at 72 h ([1]; KOLLIPHOR EL (listed as oil), aqueous with cosolvent or surfactant or cyclodextrin, Oil: KOLLIPHOR EL): 5400 µg/mL (≈ 17.6 mM)
- solubility at 72 h ([1]; PEG 400 (co-surfactant), organic solvent or mixture, Co-Surfactant: PEG 400): 3100 µg/mL (≈ 10.1 mM)
- solubility at 72 h ([1]; Tween 20 (surfactant), aqueous with cosolvent or surfactant or cyclodextrin, Surfactants: Tween 20): 4580 µg/mL (≈ 14.9 mM)
- solubility at 72 h ([1]; Tween 80 (surfactant), aqueous with cosolvent or surfactant or cyclodextrin, Surfactants: Tween 80): 4920 µg/mL (≈ 16 mM)
SMILES: COc1ccc2c(c1)/C(=C1/Nc3ccccc3/C1=N\O)C(=O)N2 [Compound A3334, 5-Methoxyindirubin-3′-oxime]
- thermogenesis and beige-fat markers in scWAT (HFD-fed mice; HFD (DIO) mice): exhibited elevated thermogenesis and beige-fat markers
- Ca++ and Mg++ levels in serum (HFD-fed mice; HFD mice): without any effect on Ca^++ and Mg^++ imbalance; also recorded: not significantly changed
- F4/80+ and CD11b+ cells / inflammation in adipose tissue (HFD-fed mice; HFD mice): the populations of F4/80^+ and CD11b^+ cells decreased; also recorded: also suppressed by A3334
- energy expenditure and activity (HFD-fed mice; HFD mice): increases energy expenditure via enhancing brown- and beige-fat activation; also recorded: higher energy expenditure and more active behavior than vehicle-treated mice
- mRNA of M1 and M2 macrophage marker genes in epiWAT (HFD-fed mice; HFD mice): decreased and increased in the epiWAT of A3334-treated mice, respectively
- respiratory exchange ratio (HFD-fed mice; HFD mice): lower respiratory exchange ratio
- serum ALT, AST, FFA (and TG) (HFD-fed mice; HFD mice): mostly suppressed by the A3334 treatment; also recorded: reduced by A3334; also recorded: also lowered by A3334; also recorded: significantly lowered by A3334
- transition of brown adipocytes to white adipocytes, UCP1 and GLUT4 (HFD-fed mice; HFD mice): suppressed by the A3334 treatment together with recovery of the levels of UCP1 and GLUT4
- serum adiponectin level (HFD-fed mice; HFD mice (FIG. 38G)): increased by A3334
- glucose tolerance and insulin tolerance (GTT/ITT) (HFD-fed mice; [2]): significantly improved the systemic glucose tolerance and insulin resistance; also recorded: most significantly reduced by A3334
- insulin resistance (fasting insulin, HOMA-IR) (HFD-fed mice; [2]): improves diet-induced obesity and insulin resistance; also recorded: improved insulin resistance; also recorded: reduced by A3334; also recorded: mostly resolved by A3334 administration
- body weight and food intake (HFD-fed mice; HFD mice, A3334 25 mg/kg): the body weights were decreased without significant changes in food intake
- fat mass (body composition, tissue weights) (HFD-fed mice; HFD mice, A3334 25 mg/kg): reduction of overall fat mass
- levels of GTT/ITT, total cholesterol, fasting glucose, triglyceride, FFAs in serum (HFD-fed mice; HFD mice, A3334 25, metformin 100, sitagliptin 50 mpk (FIG. 38B-38F)): most significantly reduced by A3334
- hepatic steatosis (lipid droplets, fatty liver, hepatic TG) (HFD-fed mice; HFD mice, H&E, Oil Red O): did not form lipid droplets with a reduction in the hepatic TG levels; also recorded: totally abolished by the A3334 treatment; also recorded: suppressed by A3334
- Cxxc5 and β-catenin expression in epiWAT (HFD-fed mice; HFD mice, IHC): Cxxc5 expression was mostly abolished and only a small amount remained in the nucleus with the elevation of nuclear β-catenin
- UCP1 protein level in BAT and scWAT (HFD-fed mice; HFD mice, IHC): the protein level increment of the major thermogenin uncoupling protein 1 (UCP1) was confirmed in BAT and scWAT
- crown-like structures and adipocyte size in white adipose tissue (HFD-fed mice; HFD mice, epiWAT/WAT, H&E): significantly decreased the number of CLSs as well as the size of adipocytes; also recorded: suppressed HFD-induced increase in cell size and the expression of PPARγ and C/EBPα; also recorded: inhibited by the A3334 treatment
- oxygen consumption (VO2) and carbon dioxide production (VCO2) (HFD-fed mice; HFD mice, light and dark periods): consumed higher oxygen (VO2) and exhaled more carbon dioxide (VCO2)
- Wnt/β-catenin signaling target genes in liver (HFD-fed mice; HFD mice, mRNA): induction of Wnt/β-catenin signaling target genes; also recorded: significantly increased by A3334 treatment
- Wnt/β-catenin target genes and lipogenesis/inflammation genes in white adipose tissue (HFD-fed mice; HFD mice, mRNA): upregulated with the regression of the lipogenesis genes; also recorded: significantly lowered by the A3334 treatment
- lipogenesis and gluconeogenesis genes in liver (HFD-fed mice; HFD mice, mRNA): repressed in the liver of A3334-treated mice; also recorded: significantly lowered by the A3334 treatment; also recorded: reduced by both A3334 and SITA, but A3334 showed better effectiveness
- thermogenesis / mitochondria biogenesis markers in BAT (HFD-fed mice; HFD mice, mRNA): significantly elevated expression levels of the key thermogenesis markers; also recorded: all increased by the A3334 treatment
- persistence of fasting glucose control after end of treatment (HFD-fed mice; HFD mice, p.o. daily 5 days at weeks 8/9 and 12, A3334 25, sitagliptin 50, metformin 100 mg/kg): prolonged effectiveness for the control of fasting glucose levels; also recorded: unexpected long-lasting glucose controlling effect; also recorded: long lasting effect in suppression of fast glucose level; also recorded: most significant and long last effects on fasting glucose control effect
- fasting glucose level (HFD-fed mice; [3]): lower in the A3334 treatment than in the sitagliptin and metformin treatment groups; also recorded: reduced similarly by treatment with all of these compounds at initial applications
- endocrine and metabolic parameters: total cholesterol, HDL-cholesterol, TG, adiponectin (HFD-fed mice; HFD mice, plasma, overnight fasted): much better effects than sitagliptin- and metformin-treated mice
- secretory proteins/adipokines, protein chip (HFD-fed mice; HFD mice, serum): decreased the expression levels of various secretory proteins
- effect on normal diet fed mice (fat size, organ weight, ALT and AST) (normal (Chow) mice; 25 mg/kg/d p.o.): has no effect in NCD mice; also recorded: did not have any effect on normal (Chow) mice; also recorded: no observation of metabolic disease phenotypes; also recorded: did not show any differences on size of fats (FIG. 36A-36B), weight of organs (FIG. 36D), and level of ALT and AST in blood serum
- histology of normal diet fed mice (normal (Chow) mice; 25 mpk p.o.): no histological differences were observed
- fasting glucose level (db/db diabetes mice): reduces fasting glucose levels

- IC50 (CXXC5-DVL interaction; [4]): 7.71 nM
SMILES: CO/N=C1/C(=C2/C(=O)Nc3cc(Cl)c(Cl)cc32)Nc2ccccc21 [Compound A3051, 5,6-dichloroindirubin-3′-methoxime]
- fasting glucose level (HFD-fed mice; [3]): also reduced fasting glucose. However, effects of A3051 and I3O is similar to or little bit weaker than SITA
